This passage reports Ki results from ChEMBL document CHEMBL1127588, “A structure-activity relationship study of benzylic modifications of 4-[1-(1-naphthyl)ethyl]-1H-imidazoles on alpha 1- and alpha 2-adrenergic receptors” (J Med Chem, 1994).

Test [1] addresses T1, Adrenergic receptor alpha-1 (Rattus norvegicus, UniProt P15823+P23944+P43140).
T1 sequence (P15823 whole entry): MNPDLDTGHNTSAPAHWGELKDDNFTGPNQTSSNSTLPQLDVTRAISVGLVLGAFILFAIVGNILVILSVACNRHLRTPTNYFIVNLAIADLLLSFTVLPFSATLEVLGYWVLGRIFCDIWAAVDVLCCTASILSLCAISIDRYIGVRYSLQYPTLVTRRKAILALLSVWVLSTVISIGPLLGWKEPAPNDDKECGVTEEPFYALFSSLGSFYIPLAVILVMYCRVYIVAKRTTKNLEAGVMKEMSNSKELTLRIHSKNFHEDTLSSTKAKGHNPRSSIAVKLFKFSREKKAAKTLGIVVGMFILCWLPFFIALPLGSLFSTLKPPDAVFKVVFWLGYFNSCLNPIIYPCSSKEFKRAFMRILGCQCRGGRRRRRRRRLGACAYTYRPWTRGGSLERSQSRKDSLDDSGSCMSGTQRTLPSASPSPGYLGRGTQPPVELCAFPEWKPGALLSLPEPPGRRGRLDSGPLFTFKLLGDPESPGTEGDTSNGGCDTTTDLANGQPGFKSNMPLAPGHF
T1 sequence (P23944 whole entry): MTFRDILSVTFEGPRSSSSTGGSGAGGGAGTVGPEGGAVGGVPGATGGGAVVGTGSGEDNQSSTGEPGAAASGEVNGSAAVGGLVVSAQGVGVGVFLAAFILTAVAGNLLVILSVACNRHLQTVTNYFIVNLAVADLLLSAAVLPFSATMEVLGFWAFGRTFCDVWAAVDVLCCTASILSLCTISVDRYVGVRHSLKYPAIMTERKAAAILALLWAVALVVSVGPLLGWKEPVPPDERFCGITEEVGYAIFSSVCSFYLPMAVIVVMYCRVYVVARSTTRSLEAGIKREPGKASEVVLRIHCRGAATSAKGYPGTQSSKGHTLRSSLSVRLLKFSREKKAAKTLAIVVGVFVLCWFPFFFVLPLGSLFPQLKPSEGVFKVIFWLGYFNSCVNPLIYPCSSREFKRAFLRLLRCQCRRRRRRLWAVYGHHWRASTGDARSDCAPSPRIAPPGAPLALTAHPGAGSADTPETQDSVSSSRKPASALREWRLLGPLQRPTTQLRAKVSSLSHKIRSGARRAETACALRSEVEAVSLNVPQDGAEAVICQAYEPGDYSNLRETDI
T1 sequence (P43140 whole entry): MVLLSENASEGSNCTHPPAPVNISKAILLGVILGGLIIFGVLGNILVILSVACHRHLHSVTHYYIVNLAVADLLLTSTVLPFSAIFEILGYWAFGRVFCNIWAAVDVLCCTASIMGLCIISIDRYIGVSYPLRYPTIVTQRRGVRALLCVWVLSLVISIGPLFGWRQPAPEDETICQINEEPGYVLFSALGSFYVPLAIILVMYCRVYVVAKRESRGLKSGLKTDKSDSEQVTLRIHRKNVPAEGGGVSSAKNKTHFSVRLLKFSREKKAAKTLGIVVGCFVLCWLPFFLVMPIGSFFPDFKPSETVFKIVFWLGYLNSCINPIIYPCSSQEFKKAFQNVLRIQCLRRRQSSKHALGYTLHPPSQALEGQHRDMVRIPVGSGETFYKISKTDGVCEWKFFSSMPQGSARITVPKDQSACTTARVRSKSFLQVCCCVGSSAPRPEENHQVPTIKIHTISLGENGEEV
The test is described as follows: Tested for its binding affinity against alpha-1 receptor in rat brain membrane. In kind it is cell membranes.

The target of test [2] is T2, Adrenergic receptor alpha-2 (Rattus norvegicus, UniProt P22086+P19328+P22909).
T2 sequence (P22086 whole entry): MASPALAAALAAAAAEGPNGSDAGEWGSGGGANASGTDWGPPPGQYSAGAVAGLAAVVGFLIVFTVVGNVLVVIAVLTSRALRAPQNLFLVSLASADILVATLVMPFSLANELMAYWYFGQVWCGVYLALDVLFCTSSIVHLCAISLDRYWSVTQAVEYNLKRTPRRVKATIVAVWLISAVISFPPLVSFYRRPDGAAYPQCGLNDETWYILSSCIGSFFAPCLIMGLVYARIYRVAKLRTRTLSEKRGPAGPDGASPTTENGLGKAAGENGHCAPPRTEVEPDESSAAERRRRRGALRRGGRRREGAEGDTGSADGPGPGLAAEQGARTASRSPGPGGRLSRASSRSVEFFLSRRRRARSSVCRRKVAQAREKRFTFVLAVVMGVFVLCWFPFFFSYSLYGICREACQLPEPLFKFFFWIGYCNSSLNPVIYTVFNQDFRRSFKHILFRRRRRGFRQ
T2 sequence (P19328 whole entry): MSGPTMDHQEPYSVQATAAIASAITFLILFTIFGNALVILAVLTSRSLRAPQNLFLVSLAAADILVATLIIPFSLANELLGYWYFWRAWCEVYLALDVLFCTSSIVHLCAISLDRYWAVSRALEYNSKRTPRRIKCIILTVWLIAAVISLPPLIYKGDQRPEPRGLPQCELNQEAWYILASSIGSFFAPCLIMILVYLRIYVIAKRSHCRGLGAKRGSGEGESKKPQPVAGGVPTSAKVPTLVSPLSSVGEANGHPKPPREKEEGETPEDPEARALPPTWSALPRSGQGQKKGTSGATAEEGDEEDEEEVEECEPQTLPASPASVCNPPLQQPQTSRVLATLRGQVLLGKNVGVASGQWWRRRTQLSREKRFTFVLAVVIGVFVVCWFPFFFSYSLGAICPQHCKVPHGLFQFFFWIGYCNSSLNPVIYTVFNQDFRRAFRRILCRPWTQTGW
T2 sequence (P22909 whole entry): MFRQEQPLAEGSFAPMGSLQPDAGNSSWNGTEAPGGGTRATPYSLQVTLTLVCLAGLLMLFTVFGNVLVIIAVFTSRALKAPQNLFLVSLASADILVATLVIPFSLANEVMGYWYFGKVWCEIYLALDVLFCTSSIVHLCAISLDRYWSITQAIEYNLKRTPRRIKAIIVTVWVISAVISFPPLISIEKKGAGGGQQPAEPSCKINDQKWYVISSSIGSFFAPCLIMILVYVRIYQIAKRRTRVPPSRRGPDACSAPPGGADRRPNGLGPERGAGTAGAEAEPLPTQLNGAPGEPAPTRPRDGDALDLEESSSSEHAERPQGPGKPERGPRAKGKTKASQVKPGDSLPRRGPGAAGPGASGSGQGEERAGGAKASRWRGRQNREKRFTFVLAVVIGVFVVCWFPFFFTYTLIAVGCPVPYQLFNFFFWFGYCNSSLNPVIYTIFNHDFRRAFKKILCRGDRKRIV
The test is described as follows: Tested for its binding affinity against alpha-2 receptor in rat brain membrane. In kind it is cell membranes.

Take `CC(c1c[nH]cn1)c1cccc2ccccc12` (stereo in doubt; S-(+)-2): the figures for the inhibition constant (Ki) in test [1] and in test [2] were 0.461 µM and 0.011 µM, respectively.

Take `Cl.c1ccc2c(Cc3c[nH]cn3)cccc2c1`: the values for the Ki in test [1] and in test [2] were 0.188 µM and 0.068 µM, respectively.

For the compound `Cl.OC(c1c[nH]cn1)c1cccc2ccccc12` (centres undefined), the inhibitory constant (Ki) – broadly, the equilibrium dissociation constant of an inhibitor or competing ligand from its target – in test [1] amounted to 9.255 µM; in test [2], 8.81 µM.

As for `COC(c1c[nH]cn1)c1cccc2ccccc12.Cl` (centres undefined), the Ki in test [1] is above 50 µM; in test [2], 8.582 µM.

For the compound `CC(c1c[nH]cn1)c1cccc2ccccc12` (stereo in doubt; S-(-)-2), the Ki came to 0.536 µM in test [1] and 0.024 µM in test [2].

As for `Cc1cccc(C(C)c2c[nH]cn2)c1C` (centres undefined) [MEDETOMIDINE], the Ki in test [1] stood at 1.102 µM; in test [2], 0.019 µM.

Turning to `CC(c1c[nH]cn1)c1cccc2ccccc12` (stereo in doubt; 2), the Ki in test [1] amounted to 0.31 µM; in test [2], 0.017 µM.
